From patent US20200247855A1, “THERAPY AND DIAGNOSTICS” (OXFORD UNIVERSITY INNOVATION LIMITED, priority 2017, published 2020)
No end group written: not given here.

Tests used:
[1] = target: T1, CCL18 (Homo sapiens, UniProt P55774); assay: Fluorescence polarisation (anisotropy) assay; format: binding; details: fluorescence polarisation displacement assay
T1 construct: purchased Peprotech
T1 sequence (P55774 21-89): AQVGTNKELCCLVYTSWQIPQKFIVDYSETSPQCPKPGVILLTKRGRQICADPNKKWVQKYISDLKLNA
Procedure: (§1) FIG. 14(B). Fluorescence polarisation assay showing binding of chemokines to P672_PEP-FITC. The measured fluorescence anisotropy (y-axis) of P672_PEP-FITC (50 nM) following binding to a fixed dose (1 μM)) of CCL7, CCL8, CCL18 and CXCL1 (negative control). […] Statistical significance was determined using one-way ANOVA with Sidak's correction for multiple comparisons using Graph Pad Prism 6. **=p<0.005, ****=P<0.00005, ns=not significant.
(§2) FIG. 15(C). Displacement of P672_PEP-FITC from CCL18 by P672_PEP. In each case 100 μM (++) or […] (+) of P672_PEP was incubated with P672_PEP-FITC (50 nM)/chemokine (1 μM CCL7 and CCL18; 500 nM CCL8) and the resulting anisotropy measured. A peptide with the P672_PEP sequence scrambled ([…]) served as a negative control (P672_PEP_SCRAM; […]). Experiment carried out in triplicate where each data point is the average of one experiment carried out in technical triplicate. Mean with SEM shown and statistical significance was determined using one-way ANOVA with Sidak's correction for multiple comparisons using Graph Pad Prism 6. *=p<0.05, ***=p<0.0005, ****=P<0.00005, ns=not significant.
(§3) Fluorescence polarization assays were performed using a Clariostar (BMG Tech) plate reader with the supplied FITC excitation and emission filters using 96 half area well plates (Corning). The buffer used (FP assay buffer) was 50 mM HEPES, 150 mM NaCl, 0.1% BSA, 0.002% TWEEN-20, 0.2% DMSO, pH 7.4 and the final volume in each well was 30 μL. Polarization was converted to anisotropy using the equation A=(2*P)/(3−P) where P is polarization and A is anisotropy. For each peptide tested the gain was set to 35 mP and adjusted to a well containing fluorescent peptide only. The polarization of the emitted light in the FITC emission channel was then determined. Experiments were performed as two technical and three biological replicates. Screening of P672 peptide fragments was achieved through incubation of each peptide (50 nM) with 1 μM CCL8 (Peprotech) for 30 minutes in FP assay buffer and the resulting anisotropy of the emitted light determined as above. The chemokine cross binding screen was performed by incubating 1 μM chemokine (Peprotech) with 50 nM BK1.1FITC for half an hour in FP assay buffer and the resulting anisotropy of the emitted light determined as above. To monitor BK1.1FITC Ala mutants of binding to CCL8, 50 nM labelled peptide was incubated with varying concentrations of recombinant CCL8 (0-25 μM, final) in 30 μL FP assay buffer for 30 minutes and the resulting anisotropy of the emitted light determined as above. The anisotropy was plotted as a function of CCL8 concentration and fitted to the equation: Y=Bmax*X/(KD+X)+NS*X+Background, where Y is the measured anisotropy, X is the concentration of CCL8 added, Bmax is the maximum binding, KD is the equilibrium dissociation constant, NS is the slope of the nonlinear regression and Background is the anisotropy when no CCL8 is present, in Graph Pad Prism. Displacement assays were carried out with CCL7, CCL8, and CCL18 (Peprotech, 1 μM). […] For all FP assays, the experiments were carried out as two technical and three biological replicates.

[2] = target: T2, CCL7 (Homo sapiens, UniProt P80098); assay: Fluorescence polarisation (anisotropy) assay; format: binding; details: fluorescence polarisation displacement assay
T2 construct: purchased Peprotech
T2 sequence (P80098 24-99): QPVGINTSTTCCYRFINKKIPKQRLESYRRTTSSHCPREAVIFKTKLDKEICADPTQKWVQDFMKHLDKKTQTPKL
Procedure: as §1, §2, §3

[3] = target: T3, CCL8 homodimer (Homo sapiens, UniProt P80075); assay: Native mass spectrometry of CCL8 with peptide; details: 1:1 CCL8 monomer:BK1.1
T3 construct: purchased Peprotech (UK)
T3 sequence (P80075 24-99): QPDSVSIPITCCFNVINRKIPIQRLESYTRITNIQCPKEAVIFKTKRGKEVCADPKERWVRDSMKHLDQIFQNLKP
Procedure: Mid panel: In-solution dissociation of CCL8 dimer and further binding of CCL8 to one and two BK-1. Confirmation of CCL8/BK-1 complex by HCD gas-phase dissociation of isolated precursor ions: Bottom panel, left: 2217 m/z corresponding to CCL8/BK-1 (1:1) and Bottom panel, […]: 2555 m/z corresponding to CCL8/BK-1 (1:2). Buffers contained up to 0.5% DMSO. All analyses were performed in triplicate.
Samples were analysed using a modified Q-Exactive mass spectrometer (Thermo Fisher Scientific) for high-mass range measurements (Gault, J. et al., Nature methods [2016]). CCL8 was buffered exchanged into 200 mM ammonium acetate solution (pH=6.5). […] In all cases no more than 0.5% DMSO was present in the final mixture, and a control sample of CCL8 homodimer containing 0.5% DMSO was also analysed. Instrumental parameters were set to: capillary voltage of 1.2 KV, source temperature of 50° C. and 60 V of source induced dissociation (SID). Gas phase dissociation was carried out by applying 35 and 55 V of higher-energy collisional dissociation (HCD) to the most intense charge state after isolation (25 m/z window). Spectra was acquired using a mass resolution of 60,000 for both precursor and dissociated product ions. All measurements were done in triplicates.

EDEDYEDFFKPVTAYF-NH2 [BK1.1]
Displacement of FITC-labelled peptide from CCL18 by unlabelled peptide [1]: indicate its binding
Displacement of FITC-labelled peptide from CCL18 by unlabelled peptide ([1]; listed as P672_PEP): able to displace labelled peptide bound to chemokine
Displacement of FITC-labelled peptide from CCL7 by unlabelled peptide [2]: indicate its binding
Displacement of FITC-labelled peptide from CCL7 by unlabelled peptide ([2]; listed as P672_PEP): able to displace labelled peptide bound to chemokine
Effect on CCL8 homodimerization [3]: disrupt CCL8 homodimerization
